{"source": "PubChem BioAssay (NCI)", "note": "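Values below derive from 48-hour exposures of cells grown in 96-well plates, with endpoints linearly interpolated between the two concentrations bracketing the appropriate inhibition level. At the TGI there is no net growth.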"}
{"system": "SK-MEL-5 melanoma", "experiment": "NCI-60 cell line screen, 48 h", "units": {"TGI": "µM"}}
{"smiles": "Clc1cccc(Cl)c1C1SCC2=Nc3ccccc3CN21", "note": "(stereo not given)", "TGI": 29.2}
{"smiles": "NC(N)=N/N=C/c1c(Cl)nc2sccn12", "TGI": 29.2}
{"smiles": "S=C1Cc2c([nH]c3ccccc23)-c2ccccc2N1", "TGI": "> 100"}
{"system": "NCI-H23 lung", "experiment": "NCI-60 cell line screen, 48 h", "units": {"TGI": "µM"}}
{"smiles": "Cc1nc(N)c(N2CCNCC2)c(=O)[nH]1", "TGI": "> 100"}
{"smiles": "CC1=C2C3=C(C)C(=O)C(C)(C)CC[C@@]3(C)[C@]2(C)CCC(C)(C)C1=O", "TGI": "> 100"}
{"smiles": "Brc1ccc2c(-c3nc(-c4c[nH]c5ccc(Br)cc45)cs3)c[nH]c2c1", "TGI": 13.3}
{"smiles": "COc1ccc(OC)c2c1C(=O)C(Cl)=C(N1CCN(CCOCCO)CC1)C2=O", "TGI": 21.6}
{"smiles": "CCC1c2[nH]c3ccccc3c2C[C@H]2C(=O)NC(CCC(=O)OC(C)(C)C)C(=O)N12", "note": "(stereo not given in full)", "TGI": "> 100"}
{"smiles": "CCOC(=O)NC(Nc1ccc(S(=O)(=O)Nc2ncccn2)cc1)(C(=O)OCC)C(F)(F)F", "note": "(stereo not given)", "TGI": "> 100"}
{"smiles": "CCOC(=O)C(Cl)(NC(=O)c1ccc(F)cc1)C(F)(F)F", "note": "(stereo not given)", "TGI": "> 100"}
{"smiles": "COc1ccccc1N1C(=O)/C(=C\\c2cccc(Oc3ccccc3)c2)SC1c1ccccc1", "note": "(stereo not given)", "TGI": 98.1}
{"smiles": "Cc1ccc(S(=O)(=O)OC2C3OC(C)(C)OC3OC2C(c2cc(O)c3c(c2O)C(=O)c2ccccc2C3=O)c2cc(O)c3c(c2O)C(=O)c2ccccc2C3=O)cc1", "note": "(stereo not given)", "TGI": "> 10"}
{"smiles": "N#Cc1nc(COCCOCc2ccccc2)oc1N", "TGI": "> 100"}
{"smiles": "CC/C(=N/O)c1ccc(Br)s1", "TGI": "> 100"}
{"smiles": "O=C(CCc1ccc(O)cc1)NCCc1ccc(O)cc1", "TGI": "> 100"}
{"smiles": "CC(=O)NCc1nc(C#N)c(N)o1", "TGI": "> 100"}
{"smiles": "O=P(O)(O)CN1CCN(CP(=O)(O)O)CCN(CP(=O)(O)O)CCN(CP(=O)(O)O)CC1", "TGI": "> 100"}
{"smiles": "O=C1C(Br)=CC2(C=C1Br)CCN=c1c(O)c3c(c(O)c12)=NC=N3", "TGI": 26.9}
{"smiles": "O=C1SCC(O)=C1/C=N/Nc1nc2ccccc2o1", "TGI": 86.3}
{"smiles": "Clc1cccc(Cl)c1C1SCC2=Nc3ccccc3CN21", "note": "(stereo not given)", "TGI": 34.7}
{"smiles": "NC(N)=N/N=C/c1c(Cl)nc2sccn12", "TGI": "> 100"}
{"smiles": "S=C1Cc2c([nH]c3ccccc23)-c2ccccc2N1", "TGI": "> 100"}
{"system": "SN12C renal", "experiment": "NCI-60 cell line screen, 48 h", "units": {"TGI": "µM"}}
{"smiles": "Cc1nc(N)c(N2CCNCC2)c(=O)[nH]1", "TGI": "> 100"}
{"smiles": "CC1=C2C3=C(C)C(=O)C(C)(C)CC[C@@]3(C)[C@]2(C)CCC(C)(C)C1=O", "TGI": "> 100"}
{"smiles": "Brc1ccc2c(-c3nc(-c4c[nH]c5ccc(Br)cc45)cs3)c[nH]c2c1", "TGI": 16.9}
{"smiles": "COc1ccc(OC)c2c1C(=O)C(Cl)=C(N1CCN(CCOCCO)CC1)C2=O", "TGI": 25.5}
{"smiles": "CCC1c2[nH]c3ccccc3c2C[C@H]2C(=O)NC(CCC(=O)OC(C)(C)C)C(=O)N12", "note": "(stereo not given in full)", "TGI": "> 100"}
{"smiles": "CCOC(=O)NC(Nc1ccc(S(=O)(=O)Nc2ncccn2)cc1)(C(=O)OCC)C(F)(F)F", "note": "(stereo not given)", "TGI": "> 100"}
{"smiles": "CCOC(=O)C(Cl)(NC(=O)c1ccc(F)cc1)C(F)(F)F", "note": "(stereo not given)", "TGI": "> 100"}
{"smiles": "COc1ccccc1N1C(=O)/C(=C\\c2cccc(Oc3ccccc3)c2)SC1c1ccccc1", "note": "(stereo not given)", "TGI": "> 100"}
{"smiles": "Cc1ccc(S(=O)(=O)OC2C3OC(C)(C)OC3OC2C(c2cc(O)c3c(c2O)C(=O)c2ccccc2C3=O)c2cc(O)c3c(c2O)C(=O)c2ccccc2C3=O)cc1", "note": "(stereo not given)", "TGI": "> 10"}
{"smiles": "N#Cc1nc(COCCOCc2ccccc2)oc1N", "TGI": "> 100"}
{"smiles": "CC/C(=N/O)c1ccc(Br)s1", "TGI": "> 100"}
{"smiles": "O=C(CCc1ccc(O)cc1)NCCc1ccc(O)cc1", "TGI": "> 100"}
{"smiles": "CCOC(=O)N/N=C(/N)Cc1ccccc1", "TGI": "> 100"}
{"smiles": "CC(=O)NCc1nc(C#N)c(N)o1", "TGI": "> 100"}
{"smiles": "O=P(O)(O)CN1CCN(CP(=O)(O)O)CCN(CP(=O)(O)O)CCN(CP(=O)(O)O)CC1", "TGI": "> 100"}
{"smiles": "O=C1SCC(O)=C1/C=N/Nc1nc2ccccc2o1", "TGI": 96}
{"smiles": "Clc1cccc(Cl)c1C1SCC2=Nc3ccccc3CN21", "note": "(stereo not given)", "TGI": "> 100"}
{"smiles": "NC(N)=N/N=C/c1c(Cl)nc2sccn12", "TGI": "> 100"}
{"smiles": "S=C1Cc2c([nH]c3ccccc23)-c2ccccc2N1", "TGI": "> 100"}
{"system": "ACHN renal", "experiment": "NCI-60 cell line screen, 48 h", "units": {"TGI": "µM"}}
{"smiles": "Cc1nc(N)c(N2CCNCC2)c(=O)[nH]1", "TGI": "> 100"}
{"smiles": "CC1=C2C3=C(C)C(=O)C(C)(C)CC[C@@]3(C)[C@]2(C)CCC(C)(C)C1=O", "TGI": "> 100"}
{"smiles": "Brc1ccc2c(-c3nc(-c4c[nH]c5ccc(Br)cc45)cs3)c[nH]c2c1", "TGI": "> 30"}
{"smiles": "COc1ccc(OC)c2c1C(=O)C(Cl)=C(N1CCN(CCOCCO)CC1)C2=O", "TGI": 30.3}
